Columns and labels:
[1] = tested on: infarction areas; conditions: Circulation, Vol. 90, No. 4, 1994; cited from earlier work
[2] = Determination of relaxivity R1 and R2 (Minispec PC 20); format: physicochemical; conditions: bovine plasma; 40° C.; 0.47 tesla; n = 3
Experimental: Determination of Relaxivity R1 [Lmmol^−1 s^−1] and R2 [Lmmol^−1 s^−1]
Measurement at 40° C.; 0.47 tesla
T1-sequence 180°-TI-90°, inversion recovery

[3] = in vivo; cited from earlier work

Substance	visualization of infarction areas [1]	Relaxivity R1 [2]	Relaxivity R2 [2]	deposition in the skin (photosensitization and discoloration) [3]
Mn-tetraphenyl-porphyrin [Mn-TTP]	readily visualize infarction areas			
N,N-Bis[1,4,7-tris(carboxylatomethyl)-1,4,7,10-tetraazacyclododecane-Gd-complex-10-(3-aza-4-oxo-hexan-5-ylic)-acid]-4,4′-methylene-N′,N′-bis[(3-methoxy)-2-naphtoic acid]-tetrahydrazide [Example 4]		17.0 ± 0.1 Lmmol^−1 s^−1	20.2 ± 0.6 Lmmol^−1 s^−1	
Gd-mesoporphyrin [1c, DE 4232925]	readily visualize infarction areas	15.3 ± 0.3 Lmmol^−1 s^−1	16.3 ± 0.2 Lmmol^−1 s^−1	tend to be deposited in the skin
N-(1,4,7,-Tris(carboxylatomethyl)-1,4,7,10-tetraazacyclododecane-Gd-complex-10-[1-carboxylate-1-[3-oxapropionic acid)-phenyl]-methyl-N′-[3-(methoxy),2-naphthoic acid]-dihydrazide, sodium salt [Example 11]		22.8 ± 0.8 Lmmol^−1 s^−1	29.2 ± 1.1 Lmmol^−1 s^−1	
